Assay results from patent publication US7015246B2, “Benzofuran derivatives” (Bayer Aktiengesellschaft, priority 2001, dated 2006).
pEC50: −log10 of the molar value.

tested on: thyroid hormone-regulated promoter (TRE) luciferase in HepG2 hepatocarcinoma cell; test: T3 promoter assay cell test (luciferase reporter); format: cell-based; settings: Homo sapiens; stably transfected HepG2 cells, luciferase induction; one range stated for the listed examples together; read-out: effect in the T3 promoter assay cell test
Experimental: The activity of the compounds according to the invention can be tested, for example, in vitro using the T3 Promoter Assay Cell test, which is described below:
The test is carried out using a stably transfected human HepG2 hepatocarcinoma cell which expresses a luciferase gene under the control of a thyroid hormone-regulated promoter. The vector which is used for the transfection carries a minimal thymidine kinase promoter, containing a thyroid hormone-responsive element (TRE) which consists of two inverted palindromes of in each case 12 bp and an 8 bp spacer, upstream of the luciferase gene.
For the test, the cell cultures are sown, in Eagle's minimal essential medium containing the following additions: glutamine, tricine [N(tris-(hydroxymethyl)-methyl)glycine], sodium pyruvate, non essential amino acids, (L-Ala, L-Asn, L-Asp, L-Pro, L-Ser, L-Glu, Gly), insulin, selenium and transferrin, in 96-well plates. The cultures are grown for 48 hours at 37° C. and under a 10% CO2 atmosphere. After that, serial dilutions of test substance or reference compound (T3, T4) and costimulator retinoic acid are added to the test cultures and the latter are incubated for a further 48 or 72 hours as before. Each substance concentration is tested in four replicates. In order to determine the luciferase which is induced by T3 or other substances, the cells are then lyzed by adding a buffer containing Triton and luciferin (from Promega) and immediately measured luminometrically.

| pEC50 | Compound |
| --- | --- |
| 6.62 to 9.30 | Cc1cc2oc(C(=O)O)cc2c(C)c1Oc1ccc(O)c(C(C)C)c1 [Example 17, 5-(4-Hydroxy-3-isopropylphenoxy)-4,6-dimethyl-1-benzofuran-2-carboxylic acid] |
| 6.62 to 9.30 | CCOC(=O)Cc1coc2c(C)c(Oc3ccc(OC)c(C(C)C)c3)c(C)cc12 [Example 18, Ethyl 2-[6-(3-isopropyl-4-methoxyphenoxy)-5,7-dimethyl-1-benzofuran-3-yl]acetate] |
| 6.62 to 9.30 | CCOC(=O)CC1Cc2c(cc(C)c(Oc3ccc(O)c(C(C)C)c3)c2C)O1 (stereo not shown) [Example 28, Ethyl [5-(4-hydroxy-3-isopropylphenoxy)-4,6-dimethyl-2,3-dihydro-1-benzofuran-2-yl]acetate] |
| 6.62 to 9.30 | CCOC(=O)c1cc2c(Br)c(Oc3ccc(O)c(C(=O)c4ccc(F)cc4)c3)c(Br)cc2o1 [Example 32, Ethyl 4,6-dibromo-5-[3-(4-fluorobenzoyl)-4-hydroxyphenoxy]-1-benzofuran-2-carboxylate] |
